Assay results taken from patent publication US11078193B2 (priority 2014, dated 2021).

Experiments:
HBV = assay: anti HBV activity, HepG2.117 inducibly HBV producing cell line (Tet-off), intracellular HBV DNA by realtime PCR; type: cell-based; settings: Hepatitis B virus, 72 h, HepG2.117 cells, 3 days of treatment
[1] = Cytotoxicity, HepG2 cells, Resazurin assay; type: cell-based; settings: human

Row | SMILES | EC50 (HBV) | CC50 at 4 days [1]
1 | Cn1cc(S(=O)(=O)NC2(C)CC(F)(F)C2)c(F)c1C(=O)Nc1ccnc(Br)c1 [Compound 117, N-(2-bromo-4-pyridyl)-4-[(3,3-difluoro-1-methyl-cyclobutyl)sulfamoyl]-3-fluoro-1-methyl-pyrrole-2-carboxamide] | 10 nM | > 25000 nM
2 | Cn1cc(S(=O)(=O)N[C@H]2C[C@@H](O)C2)c(Cl)c1C(=O)Nc1ccnc(Cl)c1 [Compound 93, 3-chloro-N-(2-chloro-4-pyridyl)-4-[(3-hydroxycyclobutyl)sulfamoyl]-1-methyl-pyrrole-2-carboxamide] | 330 nM | > 25000 nM
3 | CC[C@@H](C)NS(=O)(=O)c1cn(C)c(C(=O)Nc2ccnc(Cl)c2)c1Cl [Compound 73, 3-chloro-N-(2-chloro-4-pyridyl)-1-methyl-[[(1R)-1-methylpropyl]-sulfamoyl]pyrrole-2-carboxamide] | 90 nM | 21600 nM
4 | Cn1cc(S(=O)(=O)NC2(C)CC(F)(F)C2)c(F)c1C(=O)Nc1ccnc(C(F)(F)F)c1 [Compound 55, 4-[(3,3-difluoro-1-methyl-cyclobutyl)sulfamoyl]-3-fluoro-1-methyl-N-[2-(trifluoromethyl)-4-pyridyl]pyrrole-2-carboxamide] | 70 nM | > 25000 nM
5 | C[C@@H](NS(=O)(=O)c1cn(C)c(C(=O)Nc2ccnc(C(C)(F)F)c2)c1Cl)C(F)(F)F [Compound 182, 3-chloro-N-[2-(1,1-difluoroethyl)-4-pyridyl]-1-methyl-4-[[(1R)-2,2,2-trifluoro-1-methyl-ethyl]sulfamoyl]pyrrole-2-carboxamide] | 1300 nM | > 25000 nM
6 | Cc1cc(NC(=O)c2c(Cl)c(S(=O)(=O)N[C@H](C)C(F)(F)F)cn2C)cc(Cl)n1 [Compound 141, 3-chloro-N-(2-chloro-6-methyl-4-pyridyl)-1-methyl-4-[[(1R)-2,2,2-trifluoro-1-methyl-ethyl]sulfamoyl]pyrrole-2-carboxamide] | 40 nM | > 25000 nM
7 | C[C@@H](NS(=O)(=O)c1cn(C)c(C(=O)Nc2ccnc(C(F)F)c2F)c1Cl)C(C)(F)F [Compound 147, 3-chloro-N-[2-(difluoromethyl)-3-fluoro-4-pyridyl]-4-[[(1R)-2,2-difluoro-1-methyl-propyl]sulfamoyl]-1-methyl-pyrrole-2-carboxamide] | 20 nM | > 25000 nM
8 | C[C@@H](NS(=O)(=O)c1cn(C)c(C(=O)Nc2ccnc(C#N)c2F)c1F)C(F)(F)F [Compound 155, N-(2-cyano-3-fluoro-4-pyridyl)-3-fluoro-1-methyl-4-[[(1R)-2,2,2-trifluoro-1-methyl-ethyl]sulfamoyl]pyrrole-2-carboxamide] | 20 nM | > 25000 nM
9 | Cc1cc(NC(=O)c2c(Cl)c(S(=O)(=O)N[C@H](C)C(F)(F)F)cn2C)cc(C#N)n1 [Compound 36, 3-chloro-N-(2-cyano-6-methyl-4-pyridyl)-1-methyl-4-[[(1R)-2,2,2-trifluoro-1-methyl-ethyl]sulfamoyl]pyrrole-2-carboxamide] | 150 nM | > 25000 nM
10 | Cn1cc(S(=O)(=O)NC2(C(F)(F)F)CCC2)c(F)c1C(=O)Nc1ccnc(Cl)c1F [Compound 120, N-(2-chloro-3-fluoro-4-pyridyl)-3-fluoro-1-methyl-4-[[1-(trifluoromethyl)cyclobutyl]sulfamoyl]pyrrole-2-carboxamide] | 5 nM | > 25000 nM
11 | C[C@@H](NS(=O)(=O)c1cc(C(=O)Nc2ccnc(C#N)c2)n(C)c1)C(C)(F)F [Compound 101, N-(2-cyano-4-pyridyl)-4-[[(1R)-2,2-difluoro-1-methyl-propyl]sulfamoyl]-1-methyl-pyrrole-2-carboxamide] | 430 nM | > 25000 nM
12 | C[C@@H](NS(=O)(=O)c1cn(C)c(C(=O)Nc2ccc(F)c(C#N)n2)c1C#N)C(F)(F)F [Compound 181, 3-cyano-N-(6-cyano-5-fluoro-2-pyridyl)-1-methyl-4-[[(1R)-2,2,2-trifluoro-1-methyl-ethyl]sulfamoyl]pyrrole-2-carboxamide] | 1000 nM | > 25000 nM
13 | CC(C)NS(=O)(=O)c1cn(C)c(C(=O)Nc2ccnc(C(F)(F)F)c2)c1F [Compound 78, 3-fluoro-4-(isopropylsulfamoyl)-1-methyl-N-[2-(trifluoromethyl)-4-pyridyl]pyrrole-2-carboxamide] | 260 nM | > 25000 nM
14 | Cc1cc(NC(=O)c2c(Cl)c(S(=O)(=O)N[C@H](C)C(F)(F)F)cn2C)cc(C)n1 [Compound 144, 3-chloro-N-(2,6-dimethyl-4-pyridyl)-1-methyl-4-[[(1R)-2,2,2-trifluoro-1-methyl-ethyl]sulfamoyl]pyrrole-2-carboxamide] | 300 nM | > 25000 nM
15 | C[C@@H](NS(=O)(=O)c1cn(C)c(C(=O)Nc2ccc(F)nc2F)c1Cl)C(F)(F)F [Compound 77, 3-chloro-N-(2,6-difluoro-3-pyridyl)-1-methyl-4-[[(1R)-2,2,2-trifluoro-1-methyl-ethyl]sulfamoyl]pyrrole-2-carboxamide] | 300 nM | > 25000 nM
16 | C[C@H](CO)NS(=O)(=O)c1cn(C)c(C(=O)Nc2ccnc(Cl)c2)c1Cl [Compound 89, 3-chloro-N-(2-chloro-4-pyridyl)-4-[[(1R)-2-hydroxy-1-methyl-ethyl]sulfamoyl]-1-methyl-pyrrole-2-carboxamide] | 360 nM | > 25000 nM
17 | CC[C@@H](C)NS(=O)(=O)c1cn(C)c(C(=O)Nc2ccnc(C(F)(F)F)c2)c1Cl [Compound 70, 3-chloro-1-methyl-4-[[(1R)-1-methylpropyl]sulfamoyl]-N-[2-(trifluoromethyl)-4-pyridyl]pyrrole-2-carboxamide] | 150 nM | > 25000 nM
18 | Cn1cc(S(=O)(=O)NC2(CF)CCC2)c(F)c1C(=O)Nc1ccnc(C(F)F)c1 [Compound 128, N-[2-(difluoromethyl)-4-pyridyl]-3-fluoro-4-[[1-(fluoromethyl)cyclobutyl]sulfamoyl]-1-methyl-pyrrole-2-carboxamide] | 40 nM | > 25000 nM
19 | C[C@@H](NS(=O)(=O)c1cn(C)c(C(=O)Nc2ccnc(Br)c2F)c1Cl)C(C)(F)F [Compound 148, N-(2-bromo-3-fluoro-4-pyridyl)-3-chloro-4-[[(1R)-2,2-difluoro-1-methyl-propyl]sulfamoyl]-1-methyl-pyrrole-2-carboxamide] | 20 nM | > 25000 nM
20 | C[C@H](NS(=O)(=O)c1cn(C)c(C(=O)Nc2ccnc(C#N)c2)c1F)C(C)(F)F [Compound 58, N-(2-cyano-4-pyridyl)-4-[[(1S)-2,2-difluoro-1-methyl-propyl]sulfamoyl]-3-fluoro-1-methyl-pyrrole-2-carboxamide] | 140 nM | > 25000 nM
21 | Cn1cc(S(=O)(=O)NC2CCC2(F)F)c(F)c1C(=O)Nc1ccnc(C(F)F)c1 (stereo not drawn) [Compound 127, 4-[(2,2-difluorocyclobutyl)sulfamoyl]-N-[2-(difluoromethyl)-4-pyridyl]-3-fluoro-1-methyl-pyrrole-2-carboxamide] | 50 nM | > 25000 nM
22 | Cn1cc(S(=O)(=O)NC2(C(F)(F)F)CCC2)c(F)c1C(=O)Nc1ccnc(Br)c1F [Compound 166, N-(2-bromo-3-fluoro-4-pyridyl)-3-fluoro-1-methyl-4-[[1-(trifluoromethyl)cyclobutyl]sulfamoyl]pyrrole-2-carboxamide] | 3 nM | > 25000 nM
23 | C[C@@H](NS(=O)(=O)c1cn(C)c(C(=O)Nc2cc(F)ncc2F)c1Cl)C(F)(F)F [Compound 140, 3-chloro-N-(2,5-difluoro-4-pyridyl)-1-methyl-4-[[(1R)-2,2,2-trifluoro-1-methyl-ethyl]sulfamoyl]pyrrole-2-carboxamide] | 200 nM | > 25000 nM
24 | Cn1cc(S(=O)(=O)NC2(C(F)(F)F)CCC2)c(Cl)c1C(=O)Nc1cc(F)nc(F)c1 [Compound 109, 3-chloro-N-(2,6-difluoro-4-pyridyl)-1-methyl-4-[[1-(trifluoromethyl)cyclobutyl]sulfamoyl]pyrrole-2-carboxamide] | 10 nM | > 25000 nM
25 | Cn1cc(S(=O)(=O)NC2(C(F)(F)F)CCC2)c(F)c1C(=O)Nc1ccnc(Cl)c1 [Compound 122, N-(2-chloro-4-pyridyl)-3-fluoro-1-methyl-4-[[1-(trifluoromethyl)cyclobutyl]sulfamoyl]pyrrole-2-carboxamide] | 10 nM | > 25000 nM
26 | CC(C)NS(=O)(=O)c1cn(C)c(C(=O)Nc2ccnc(Cl)c2)c1F [Compound 79, N-(2-chloro-4-pyridyl)-3-fluoro-4-(isopropylsulfamoyl)-1-methyl-pyrrole-2-carboxamide] | 150 nM | > 25000 nM
27 | Cn1cc(S(=O)(=O)N[C@H]2CCOC2)c(Cl)c1C(=O)Nc1ccnc(Cl)c1 [Compound 91, 3-chloro-N-(2-chloro-4-pyridyl)-1-methyl-4-[[(3S)-tetrahydrofuran-3-yl]sulfamoyl]pyrrole-2-carboxamide] | 200 nM | > 25000 nM
28 | C[C@@H](NS(=O)(=O)c1cn(C)c(C(=O)Nc2ccc(F)nc2)c1Cl)C(F)(F)F [Compound 50, 3-chloro-N-(6-fluoro-3-pyridyl)-1-methyl-4-[[(1R)-2,2,2-trifluoro-1-methyl-ethyl]sulfamoyl]pyrrole-2-carboxamide] | 200 nM | > 25000 nM
29 | C[C@@H](NS(=O)(=O)c1cn(C)c(C(=O)Nc2ccnc(C(F)(F)F)c2F)c1Cl)C(F)(F)F [Compound 56, 3-chloro-N-[3-fluoro-2-(trifluoromethyl)-4-pyridyl]-1-methyl-4-[[(1R)-2,2,2-trifluoro-1-methyl-ethyl]sulfamoyl]pyrrole-2-carboxamide] | 50 nM | > 25000 nM
30 | Cc1cc(NC(=O)c2c(F)c(S(=O)(=O)NC3(C(F)(F)F)CCC3)cn2C)cc(C(F)F)n1 [Compound 173, N-[2-(difluoromethyl)-6-methyl-4-pyridyl]-3-fluoro-1-methyl-4-[[1-(trifluoromethyl)cyclobutyl]sulfamoyl]pyrrole-2-carboxamide] | 20 nM | > 25000 nM
